# Reference: patent US12441730B2, “PRMT5 inhibitors” (Merck Sharp & Dohme LLC, priority 2019, dated 2025)
# Like-named read-outs stand apart in the source and are kept apart here.
# Legend:
# [1] = test system: symmetric dimethylation of arginine (SDMA) of PRMT5 substrates in MCF-7 cells; experiment: PRMT5 Cell Target Engagement (TE) Assay; format: cell-based; conditions: Homo sapiens, MCF7, 72 h, 3 days treatment, SDMA high content imaging
# Method in brief: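 Readout is single-cell nuclear symmetric-dimethylarginine immunofluorescence (Alexa488), normalized to DMSO-treated cells. Compounds were applied to MCF-7 cells for 3 days at 37 °C, top concentration 10000 nM in 1:3 steps over ten points; curves fitted with 4-parameter robust fit.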
# [2] = target: T1, Full-length (FL)-PRMT5-MEP50 enzyme complex (Homo sapiens, UniProt O14744); experiment: PRMT5-MEP50 Enzyme Methylation Assay (Version A); format: biochemical
# T1 construct: Full-length (FL)-PRMT5-MEP50 enzyme complex (recombinant proteins from baculovirus-transfected Sf21 cells: FL-PRMT5; MW=73837 kDa and FL-MEP50; MW=38614); made in house; host or cells: baculovirus-transfected Sf21 cells
# T1 sequence (O14744 whole entry): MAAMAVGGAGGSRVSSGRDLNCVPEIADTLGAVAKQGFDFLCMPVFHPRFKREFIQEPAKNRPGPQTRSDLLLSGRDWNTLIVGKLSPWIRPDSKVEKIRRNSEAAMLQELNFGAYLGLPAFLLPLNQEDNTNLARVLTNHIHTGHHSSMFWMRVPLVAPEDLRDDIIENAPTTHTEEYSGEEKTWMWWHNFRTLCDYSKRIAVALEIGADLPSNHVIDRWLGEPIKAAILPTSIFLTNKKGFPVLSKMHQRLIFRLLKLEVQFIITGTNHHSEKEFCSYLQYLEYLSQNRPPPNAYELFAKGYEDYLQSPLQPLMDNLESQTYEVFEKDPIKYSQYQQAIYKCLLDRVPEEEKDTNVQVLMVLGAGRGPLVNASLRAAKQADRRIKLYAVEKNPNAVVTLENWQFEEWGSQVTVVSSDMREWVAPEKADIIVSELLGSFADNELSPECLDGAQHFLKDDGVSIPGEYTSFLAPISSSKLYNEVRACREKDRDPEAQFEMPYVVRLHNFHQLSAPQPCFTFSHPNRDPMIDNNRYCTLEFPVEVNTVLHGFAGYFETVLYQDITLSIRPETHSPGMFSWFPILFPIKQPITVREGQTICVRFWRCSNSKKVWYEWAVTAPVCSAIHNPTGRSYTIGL
# T1 sequence (Q9BQA1 whole entry partner): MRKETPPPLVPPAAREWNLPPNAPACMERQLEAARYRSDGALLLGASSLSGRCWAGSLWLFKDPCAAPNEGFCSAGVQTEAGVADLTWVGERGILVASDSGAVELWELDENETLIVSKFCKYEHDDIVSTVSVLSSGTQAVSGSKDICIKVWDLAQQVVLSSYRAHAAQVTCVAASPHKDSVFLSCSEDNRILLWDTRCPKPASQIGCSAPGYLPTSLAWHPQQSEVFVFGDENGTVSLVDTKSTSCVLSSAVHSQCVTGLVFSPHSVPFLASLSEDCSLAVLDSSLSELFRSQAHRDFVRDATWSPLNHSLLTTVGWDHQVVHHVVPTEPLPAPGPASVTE
# Method in brief: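 Compound was pre-incubated with enzyme for 60 min, then reacted 150 min at 37° C. at final 1.0 nM PRMT5-MEP50, 15 μM SAM and 75 nM biotinylated H4R3(Me1) peptide, in 50 mM Bicine pH 8.0 with 1% DMSO. SAMDI mass-spectrometric readout of Me1→Me2 conversion. EC50 from 4- or 7-parameter regression.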
# [3] = second value of 7 parameter biphasic fit, read-out: Enzyme Methylation Assay Version A (EC50 2)
# [4] = single EC50 = 4 parameter single site sigmoidal fit, EC50 1 = first value of 7 parameter biphasic fit, read-out: Enzyme Methylation Assay Version A (EC50 or EC50 1)
Structure (SMILES),EC50 [1] [nM],"EC50 [2, 3] [nM]","EC50 [2, 4] [nM]"
"O=C(c1cn2cc(C(F)(F)F)cc(CO)c2n1)N1CC[C@]2(Cc3ccccc3CN2)[C@H](O)C1 [Example 29, ((3R,3’R)-3′-hydroxy-1,4-dihydro-1′H,2H-spiro[isoquinoline-3,4′-piperidin]-1′-yl)[8-(hydroxymethyl)-6-(trifluoromethyl)imidazo[1,2-a]pyridin-2-yl]methanone]",18.4,653,0.428
"N#Cc1ccc2nc(C(=O)N3CC[C@]4(Cc5ccccc5CN4)[C@H](O)C3)cn2c1 [Example 36, 2-((3R,3’R)-3′-hydroxy-1,4-dihydro-2H-spiro[isoquinoline-3,4′-piperidine]-1′-carbonyl)imidazo[1,2-a]pyridine-6-carbonitrile]",13.2,2820,6.26
"O=C(c1cn2cc(F)ccc2n1)N1CC[C@]2(Cc3ccccc3CN2)[C@H](O)C1 [Example 38, (6-fluoroimidazo[1,2-a]pyridin-2-yl)((3R,3’R)-3′-hydroxy-1,4-dihydro-2H-spiro[isoquinoline-3,4′-piperidin]-1′-yl)methanone]",16.2,2460,3.84
"O=C(c1cn2cc(O)ccc2n1)N1CC[C@]2(Cc3ccccc3CN2)[C@H](O)C1 [Example 39, ((3R,3’R)-3′-hydroxy-1,4-dihydro-2H-spiro[isoquinoline-3,4′-piperidin]-1′-yl)(6-hydroxyimidazo[1,2-a]pyridin-2-yl)methanone]",571,29200,95.5
"O=C(c1cn2cc(Br)ncc2n1)N1CC[C@]2(Cc3ccccc3CN2)[C@H](O)C1 [Example 42, (6-bromoimidazo[1,2-a]pyrazin-2-yl)((3R,3’R)-3′-hydroxy-1,4-dihydro-2H-spiro[isoquinoline-3,4′-piperidin]-1′-yl)methanone]",24.9,3240,5.35
"COc1ccc2nc(C(=O)N3CC[C@]4(Cc5ccccc5CN4)[C@H](O)C3)cn2c1 [Example 43, ((3R,3’R)-3′-hydroxy-1,4-dihydro-2H-spiro[isoquinoline-3,4′-piperidin]-1′-yl)(6-methoxyimidazo[1,2-a]pyridin-2-yl)methanone]",19.1,1440,3.22
"O=C(c1ccn(CC(F)(F)F)c(=O)c1)N1CC[C@]2(Cc3ccccc3CN2)[C@H](O)C1 [Example 45, 4-((3R,3′R)-3′-hydroxy-1,4-dihydro-2H-spiro[isoquinoline-3,4′-piperidine]-1′-carbonyl)-1-(2,2,2-trifluoroethyl)pyridin-2(1H)-one]",224,16000,70
"CC(C)(O)c1cc(Br)cn2cc(C(=O)N3CCC4(Cc5ccccc5CN4)C(O)C3)nc12 (stereo not drawn) [Example 48, A diastereomer of [6-bromo-8-(2-hydroxy-2-propanyl)imidazo[1,2-a]pyridin-2-yl](3′-hydroxy-1,4-dihydro-1′H,2H-spiro[isoquinoline-3,4′-piperidin]-1′-yl)methanone]",246,2980,4.91
"CNC(=O)c1cc(Br)cn2cc(C(=O)N3CC[C@]4(Cc5ccccc5CN4)[C@H](O)C3)nc12 [Example 51, 6-bromo-2-((3R,3’R)-3′-hydroxy-1,4-dihydro-2H-spiro[isoquinoline-3,4′-piperidine]-1′-carbonyl)-N-methylimidazo[1,2-a]pyridine-8-carboxamide]",13.7,1500,7.02
"O=C(c1cn2c(n1)CCC(C(F)(F)F)C2)N1CC[C@]2(Cc3ccccc3CN2)[C@H](O)C1 (stereo partly drawn) [Example 54, [(3R,3′R)-3′-hydroxy-1,4-dihydro-1′H,2H-spiro[isoquinoline-3,4′-piperidin]-1′-yl][6-(trifluoromethyl)-5,6,7,8-tetrahydroimidazo[1,2-a]pyridin-2-yl]methanone]",169,2660,8.01
"O=C(c1cnc2ncc(Cl)cn12)N1CC[C@]2(Cc3ccccc3CN2)[C@H](O)C1 [Example 56, (6-chloroimidazo[1,2-a]pyrimidin-3-yl)[(3R,3′R)-3′-hydroxy-1,4-dihydro-1′H,2H-spiro[isoquinoline-3,4′-piperidin]-1′-yl]methanone]",82.1,10000,12.4
"O=C(c1ccn2c(Br)cnc2n1)N1CC[C@]2(Cc3ccccc3CN2)[C@H](O)C1 [Example 57, (3-bromoimidazo[1,2-a]pyrimidin-7-yl)[(3R,3′R)-3′-hydroxy-1,4-dihydro-1′H,2H-spiro[isoquinoline-3,4′-piperidin]-1′-yl]methanone]",2190,55000,63.1
"CN1CCn2cc(C(=O)N3CC[C@]4(Cc5ccccc5CN4)[C@H](O)C3)nc2C1 [Example 59, [(3R,3′R)-3′-hydroxy-1,4-dihydro-1′H,2H-spiro[isoquinoline-3,4′-piperidin]-1′-yl](7-methyl-5,6,7,8-tetrahydroimidazo[1,2-a]pyrazin-2-yl)methanone]",6100,,20.2

# Stronger by EC50 [1], values ahead:
EC50 [1] [nM],"EC50 [2, 3] [nM]","EC50 [2, 4] [nM]",Structure (SMILES)
10.1,313,0.715,"O=C(c1nn2cc(Br)cnc2c1Cl)N1CC[C@]2(Cc3ccccc3CN2)[C@H](O)C1 [Example 58, (6-bromo-3-chloropyrazolo[1,5-a]pyrimidin-2-yl)[(3R,3′R)-3′-hydroxy-1,4-dihydro-1′H,2H-spiro[isoquinoline-3,4′-piperidin]-1′-yl]methanone]"
9.81,403,0.421,"CC(C)(O)c1cc(Br)cn2cc(C(=O)N3CC[C@]4(Cc5ccccc5CN4)[C@H](O)C3)nc12 [Example 47, (6-bromo-8-(2-hydroxypropan-2-yl)imidazo[1,2-a]pyridin-2-yl)((3R,3’R)-3′-hydroxy-1,4-dihydro-2H-spiro[isoquinoline-3,4′-piperidin]-1′-yl)methanone]"
8.7,468,0.814,"Cc1ccc2nc(C(=O)N3CC[C@]4(Cc5ccccc5CN4)[C@H](O)C3)cn2c1 [Example 40, ((3R,3’R)-3′-hydroxy-1,4-dihydro-2H-spiro[isoquinoline-3,4′-piperidin]-1′-yl)(6-methylimidazo[2,2-a]pyridin-2-yl)methanone]"
5.66,248,0.766,"Cc1cc(C(F)(F)F)cn2cc(C(=O)N3CC[C@]4(Cc5ccccc5CN4)[C@H](O)C3)nc12 [Example 35, ((3R,3’R)-3′-hydroxy-1,4-dihydro-2H-spiro[isoquinoline-3,4′-piperidin]-1′-yl)(8-methyl-6-(trifluoromethyl)imidazo[1,2-a]pyridin-2-yl)methanone]"
4,229,0.909,"N#CCCc1cc(C(F)(F)F)cn2cc(C(=O)N3CC[C@]4(Cc5ccccc5CN4)[C@H](O)C3)nc12 [Example 34, 3-(2-((3R,3’R)-3′-hydroxy-1,4-dihydro-2H-spiro[isoquinoline-3,4′-piperidine]-1′-carbonyl)-6-(trifluoromethyl)imidazo[1,2-a]pyridin-8-yl)propanenitrile]"
3.88,347,1.15,"Cc1cc(Br)c2nc(C(=O)N3CC[C@]4(Cc5ccccc5CN4)[C@H](O)C3)cn2c1 [Example 49, (8-bromo-6-methylimidazo[1,2-a]pyridin-2-yl)((3R,3’R)-3′-hydroxy-1,4-dihydro-2H-spiro[isoquinoline-3,4′-piperidin]-1′-yl)methanone]"
2.44,209,0.513,"O=C(c1cn2cc(C(F)F)ccc2n1)N1CC[C@]2(Cc3ccccc3CN2)[C@H](O)C1 [Example 41, (6-(difluoromethyl)imidazo[1,2-a]pyridin-2-yl)((3R,3’R)-3′-hydroxy-1,4-dihydro-2H-spiro[isoquinoline-3,4′-piperidin]-1′-yl)methanone]"
1.61,251,0.757,"O=C(c1cn2cc(Cl)ccc2n1)N1CC[C@]2(Cc3ccccc3CN2)[C@H](O)C1 [Example 37, (6-chloroimidazo[1,2-a]pyridin-2-yl)((3R,3’R)-3′-hydroxy-1,4-dihydro-2H-spiro[isoquinoline-3,4′-piperidin]-1′-yl)methanone]"
1.48,62.4,0.38,"COc1cc(Br)cn2cc(C(=O)N3CC[C@]4(Cc5ccccc5CN4)[C@H](O)C3)nc12 [Example 50, (6-bromo-8-methoxyimidazo[1,2-a]pyridin-2-yl)((3R,3’R)-3′-hydroxy-1,4-dihydro-2H-spiro[isoquinoline-3,4′-piperidin]-1′-yl)methanone]"
1.32,42.1,0.687,"Cc1cc(Br)cn2cc(C(=O)N3CC[C@]4(Cc5ccccc5CN4)[C@H](O)C3)nc12 [Example 44, (6-bromo-8-methylimidazo[1,2-a]pyridin-2-yl)((3R,3’R)-3′-hydroxy-1,4-dihydro-2H-spiro[isoquinoline-3,4′-piperidin]-1′-yl)methanone]"
1.17,170,0.817,"O=C(c1cn2cc(Br)cc(C(F)(F)F)c2n1)N1CC[C@]2(Cc3ccccc3CN2)[C@H](O)C1 [Example 55, [6-bromo-8-(trifluoromethyl)imidazo[1,2-a]pyridin-2-yl][(3R,3′R)-3′-hydroxy-1,4-dihydro-1′H,2H-spiro[isoquinoline-3,4′-piperidin]-1′-yl]methanone]"
